In patent US20040097740A1, “Method for producing delta 1-pyrrolines” (priority 2000, published 2004):
Like-named read-outs stand apart in the source and are kept apart here.

Tests used:
[1] = log P determination by HPLC on reverse-phase column (C 18), EEC Directive 79/831 Annex V.A8; assay type: physicochemical; conditions: 43° C.; for chromatographic logP: reverse-phase HPLC column (C 18)
Method: The determination is carried out in the acidic range at pH 2.3 using the mobile phases 0.1% aqueous phosphoric acid and acetonitrile; linear gradient from 10% acetonitrile to 90% acetonitrile.

[2] = pH 2.3, pH 2.3, preparation example, 0.1% aqueous phosphoric acid/acetonitrile gradient, read-out: HPLC: log P (pH 2.3)

Compound	chromatographic logP ([1]; pH 2.3, haloketones of the formula (III), acidic range pH 2.3, read-out: logP*)	chromatographic logP [1, 2]	melting point [°C]	chromatographic logP ([1]; pH 2.3, azides of the formula (II), acidic range pH 2.3, read-out: logP*)	HPLC: log P (pH 2.3) ([1]; pH 2.3, preparation example, 0.1% aqueous phosphoric acid/acetonitrile gradient)
O=C(c1c(F)cccc1F)C1CC1c1ccc(Br)cc1 (stereo not drawn) [Example V-1, [2-(4-bromophenyl)cyclopropyl](2,6-difluorophenyl)methanone]			64 to 65		
Fc1cccc(F)c1C1=NC(c2ccc(Br)cc2)CC1 (stereo not drawn) [Example I-1, 2-(4-bromophenyl)-5-(2,6-difluorophenyl)-3,4-dihydro-2H-pyrrole]		2.72	48		2.71

The next lines start with the values.

chromatographic logP ([1]; pH 2.3, haloketones of the formula (III), acidic range pH 2.3, read-out: logP*)	chromatographic logP [1, 2]	melting point [°C]	chromatographic logP ([1]; pH 2.3, azides of the formula (II), acidic range pH 2.3, read-out: logP*)	HPLC: log P (pH 2.3) ([1]; pH 2.3, preparation example, 0.1% aqueous phosphoric acid/acetonitrile gradient)	Compound
4.43	4.52				O=C(CCC(Cl)c1ccc(Br)cc1)c1c(F)cccc1F (stereo not drawn) [III-1, 4-(4-bromophenyl)-4-chloro-1-(2,6-difluorophenyl)-1-butanone]
		71			O=C(/C=C/c1ccc(Br)cc1)c1c(F)cccc1F [VI-1, (2E)-3-(4-bromophenyl)-1-(2,6-difluorophenyl)-2-propen-1-one]
	4.47		4.47		[N-]=[N+]=NC(CCC(=O)c1c(F)cccc1F)c1ccc(Br)cc1 (stereo not drawn) [II-1, 4-(4-bromophenyl)-4-azido-1-(2,6-difluorophenyl)-1-butanone]
